Assay results: patent publication US9833497B2, “Human originated EGF domain proteins and use of the same” (CHENGDU SOURCEBIO LIMITED-LIABILITY COMPANY, priority 2013, dated 2017)

Tests used:
Assay type in all cases: cell-based
E. coli DH5α = assay: Antibacterial activity: MIC and growth curve against E. coli DH5α in 96-well plate; conditions: minimal inhibitory concentration against E. coli DH5α; 96-well plate, 5×10^5 CFU/mL, 37° C., judged after 8 h
Method in brief: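 MIC taken as lowest protein level with no bacterial growth, tracked by A600 every 30 min during 37 °C, 175 rpm culture. Two-fold protein series 50-12.5 μg/mL final, triplicate wells, against 5×10^5 CFU/mL of LB-washed mid-log cells.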

E. coli BL21 = assay: MIC against Gram-negative bacteria: E. coli BL21; conditions: for MIC against E. coli BL21 / MIC (μg/mL) E. coli BL21: 5×10^5 CFU/mL
Method in brief: (§1)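 MIC = lowest concentration of recombinant protein showing no growth. Test proteins: purified human-derived EGF domain proteins, two-fold dilution series, three wells per concentration; inoculum 5×10^5 CFU/mL in LB; incubation 37° C with shaking at 175 rpm.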

Pseudomonas aeruginosa = assay: MIC against Gram-negative bacteria: Pseudomonas aeruginosa; conditions: for MIC against P. aeruginosa / MIC (μg/mL) P. aeruginosa: 5×10^5 CFU/mL
Method in brief: as §1

Klebsiella pneumonia = assay: MIC against Gram-negative bacteria: Klebsiella pneumonia; conditions: for MIC against K. pneumonia / MIC (μg/mL) K. pneumonia: 5×10^5 CFU/mL
Method in brief: as §1

Enterobacter cloacae = assay: MIC against Gram-negative bacteria: Enterobacter cloacae; conditions: for MIC against E. cloacae / MIC (μg/mL) E. cloacae: 5×10^5 CFU/mL
Method in brief: as §1

Aeromonas hydrophila = assay: MIC against Gram-negative bacteria: Aeromonas hydrophila; conditions: for MIC against A. hydrophila / MIC (μg/mL) A. hydrophila: 5×10^5 CFU/mL
Method in brief: as §1

Citrobacter diversus = assay: MIC against Gram-negative bacteria: Citrobacter diversus; conditions: for MIC against C. diversus / MIC (μg/mL) C. diversus: 5×10^5 CFU/mL
Method in brief: as §1

Moraxella catarrhalis = assay: MIC against Gram-negative bacteria: Moraxella catarrhalis; conditions: for MIC against M. catarrhalis / MIC (μg/mL) M. catarrhalis: 5×10^5 CFU/mL
Method in brief: as §1

Proteus mirabilis = assay: MIC against Gram-negative bacteria: Proteus mirabilis; conditions: for MIC against P. mirabilis / MIC (μg/mL) P. mirabilis: 5×10^5 CFU/mL
Method in brief: as §1

Proteus vulgaris = assay: MIC against Gram-negative bacteria: Proteus vulgaris; conditions: for MIC against P. vulgaris / MIC (μg/mL) P. vulgaris: 5×10^5 CFU/mL
Method in brief: as §1

Serratia marcescens = assay: MIC against Gram-negative bacteria: Serratia marcescens; conditions: for MIC against S. marcescens / MIC (μg/mL) S. marcescens: 5×10^5 CFU/mL
Method in brief: as §1

[1] = E. coli BL21, 10 h cultivation at 37° C.
[2] = P. aeruginosa, 10 h cultivation at 37° C.
[3] = K. pneumonia, 10 h cultivation at 37° C.
[4] = E. cloacae, 10 h cultivation at 37° C.
[5] = A. hydrophila, 10 h cultivation at 37° C.
[6] = C. diversus, 10 h cultivation at 37° C.
[7] = M. catarrhalis, 10 h cultivation at 37° C.
[8] = P. mirabilis, 10 h cultivation at 37° C.
[9] = P. vulgaris, 10 h cultivation at 37° C.
[10] = S. marcescens, 10 h cultivation at 37° C.

PRT1264 (DIDECGNELNGGCVHDCLNIPGNYRCTCFDGFMLAHDGHNCL; listed as Homo sapiens)
MIC (E. coli DH5α): 12.5 µg/mL
MIC against E. coli BL21 (E. coli BL21; E. coli BL21, 96-well plate, 37° C., 10 h): 50 µg/mL
MIC against P. aeruginosa (Pseudomonas aeruginosa; Pseudomonas aeruginosa, 96-well plate, 37° C., 10 h): 12.5 µg/mL
MIC against K. pneumonia (Klebsiella pneumonia; Klebsiella pneumonia, 96-well plate, 37° C., 10 h): 25 µg/mL
MIC against E. cloacae (Enterobacter cloacae; Enterobacter cloacae, 96-well plate, 37° C., 10 h): 12.5 µg/mL
MIC against A. hydrophila (Aeromonas hydrophila; Aeromonas hydrophila, 96-well plate, 37° C., 10 h): 25 µg/mL
MIC against C. diversus (Citrobacter diversus; Citrobacter diversus, 96-well plate, 37° C., 10 h): 12.5 µg/mL
MIC against M. catarrhalis (Moraxella catarrhalis; Moraxella catarrhalis, 96-well plate, 37° C., 10 h): 50 µg/mL
MIC against P. mirabilis (Proteus mirabilis; Proteus mirabilis, 96-well plate, 37° C., 10 h): 12.5 µg/mL
MIC against P. vulgaris (Proteus vulgaris; Proteus vulgaris, 96-well plate, 37° C., 10 h): 50 µg/mL
MIC against S. marcescens (Serratia marcescens; Serratia marcescens, 96-well plate, 37° C., 10 h): 12.5 µg/mL

PRT527 (CPCPHTNSFATGCVVNGGDVRCSCKAGYTGTQCERCAPGYFGNPQKFGGSCQP; listed as Homo sapiens)
MIC (E. coli DH5α): 50 µg/mL
MIC against E. coli BL21 (E. coli BL21; 96-well plate, 37° C., 10 h): 12.5 µg/mL
MIC against P. aeruginosa (Pseudomonas aeruginosa; 96-well plate, 37° C., 10 h): 50 µg/mL
MIC against K. pneumonia (Klebsiella pneumonia; 96-well plate, 37° C., 10 h): 12.5 µg/mL
MIC against E. cloacae (Enterobacter cloacae; 96-well plate, 37° C., 10 h): 25 µg/mL
MIC against A. hydrophila (Aeromonas hydrophila; 96-well plate, 37° C., 10 h): 50 µg/mL
MIC against C. diversus (Citrobacter diversus; 96-well plate, 37° C., 10 h): 25 µg/mL
MIC against M. catarrhalis (Moraxella catarrhalis; 96-well plate, 37° C., 10 h): 12.5 µg/mL
MIC against P. mirabilis (Proteus mirabilis; 96-well plate, 37° C., 10 h): 25 µg/mL
MIC against P. vulgaris (Proteus vulgaris; 96-well plate, 37° C., 10 h): 50 µg/mL
MIC against S. marcescens (Serratia marcescens; 96-well plate, 37° C., 10 h): 25 µg/mL

PRT187 (KVDRCTSNPCANGGQCLNRGPSRMCRCRPGFTGTYCE; listed as Homo sapiens)
MIC (E. coli DH5α): 25 µg/mL
MIC (μg/mL) E. coli BL21 (E. coli BL21; [1]): 12.5 µg/mL
MIC (μg/mL) P. aeruginosa (Pseudomonas aeruginosa; [2]): 25 µg/mL
MIC (μg/mL) K. pneumonia (Klebsiella pneumonia; [3]): 12.5 µg/mL
MIC (μg/mL) E. cloacae (Enterobacter cloacae; [4]): 25 µg/mL
MIC (μg/mL) A. hydrophila (Aeromonas hydrophila; [5]): 12.5 µg/mL
MIC (μg/mL) C. diversus (Citrobacter diversus; [6]): 25 µg/mL
MIC (μg/mL) M. catarrhalis (Moraxella catarrhalis; [7]): 12.5 µg/mL
MIC (μg/mL) P. mirabilis (Proteus mirabilis; [8]): 25 µg/mL
MIC (μg/mL) P. vulgaris (Proteus vulgaris; [9]): 12.5 µg/mL
MIC (μg/mL) S. marcescens (Serratia marcescens; [10]): 25 µg/mL

PRT1344 (DIDECSPLPCLNNGVCKDLVGEFICECPSGYTGQRCE; listed as Homo sapiens)
MIC (E. coli DH5α): 12.5 µg/mL
MIC against E. coli BL21 (E. coli BL21; [1]): 50 µg/mL
MIC against P. aeruginosa (Pseudomonas aeruginosa; Pseudomonas aeruginosa, 10 h cultivation at 37° C.): 25 µg/mL
MIC against K. pneumonia (Klebsiella pneumonia; Klebsiella pneumonia, 10 h cultivation at 37° C.): 12.5 µg/mL
MIC against E. cloacae (Enterobacter cloacae; Enterobacter cloacae, 10 h cultivation at 37° C.): 25 µg/mL
MIC against A. hydrophila (Aeromonas hydrophila; Aeromonas hydrophila, 10 h cultivation at 37° C.): 50 µg/mL
MIC against C. diversus (Citrobacter diversus; Citrobacter diversus, 10 h cultivation at 37° C.): 12.5 µg/mL
MIC against M. catarrhalis (Moraxella catarrhalis; Moraxella catarrhalis, 10 h cultivation at 37° C.): 50 µg/mL
MIC against P. mirabilis (Proteus mirabilis; Proteus mirabilis, 10 h cultivation at 37° C.): 12.5 µg/mL
MIC against P. vulgaris (Proteus vulgaris; Proteus vulgaris, 10 h cultivation at 37° C.): 50 µg/mL
MIC against S. marcescens (Serratia marcescens; Serratia marcescens, 10 h cultivation at 37° C.): 25 µg/mL

PRT797 (WGPNCSVSCSCENGGSCSPEDGSCECAPGFRGPLCQ; listed as Homo sapiens)
MIC (E. coli DH5α): 50 µg/mL
MIC (μg/mL) E. coli BL21 (E. coli BL21; [1]): 12.5 µg/mL
MIC (μg/mL) P. aeruginosa (Pseudomonas aeruginosa; [2]): 50 µg/mL
MIC (μg/mL) K. pneumonia (Klebsiella pneumonia; [3]): 25 µg/mL
MIC (μg/mL) E. cloacae (Enterobacter cloacae; [4]): 50 µg/mL
MIC (μg/mL) A. hydrophila (Aeromonas hydrophila; [5]): 12.5 µg/mL
MIC (μg/mL) C. diversus (Citrobacter diversus; [6]): 50 µg/mL
MIC (μg/mL) M. catarrhalis (Moraxella catarrhalis; [7]): 12.5 µg/mL
MIC (μg/mL) P. mirabilis (Proteus mirabilis; [8]): 12.5 µg/mL
MIC (μg/mL) P. vulgaris (Proteus vulgaris; [9]): 12.5 µg/mL
MIC (μg/mL) S. marcescens (Serratia marcescens; [10]): 12.5 µg/mL

PRT255 (DVDECVGLQPVCPQGTTCINTGGSFQCVSPECPEG; listed as Homo sapiens)
MIC (E. coli DH5α): 12.5 µg/mL
MIC (μg/mL) E. coli BL21 (E. coli BL21; [1]): 12.5 µg/mL
MIC (μg/mL) P. aeruginosa (Pseudomonas aeruginosa; [2]): 12.5 µg/mL
MIC (μg/mL) K. pneumonia (Klebsiella pneumonia; [3]): 12.5 µg/mL
MIC (μg/mL) E. cloacae (Enterobacter cloacae; [4]): 12.5 µg/mL
MIC (μg/mL) A. hydrophila (Aeromonas hydrophila; [5]): 25 µg/mL
MIC (μg/mL) C. diversus (Citrobacter diversus; [6]): 12.5 µg/mL
MIC (μg/mL) M. catarrhalis (Moraxella catarrhalis; [7]): 25 µg/mL
MIC (μg/mL) P. mirabilis (Proteus mirabilis; [8]): 100 µg/mL
MIC (μg/mL) P. vulgaris (Proteus vulgaris; [9]): 25 µg/mL
MIC (μg/mL) S. marcescens (Serratia marcescens; [10]): 12.5 µg/mL

PRT987 (NVDDCPGHRCLNGGTCVDGVNTYNCQCPPEWTGQFCT; listed as Homo sapiens)
MIC (E. coli DH5α): 25 µg/mL
MIC (E. coli BL21; [1]): 12.5 µg/mL
MIC (Pseudomonas aeruginosa; [2]): 25 µg/mL
MIC (Klebsiella pneumonia; [3]): 50 µg/mL
MIC (Enterobacter cloacae; [4]): 25 µg/mL
MIC (Aeromonas hydrophila; [5]): 12.5 µg/mL
MIC (Citrobacter diversus; [6]): 50 µg/mL
MIC (Moraxella catarrhalis; [7]): 12.5 µg/mL
MIC (Proteus mirabilis; [8]): 50 µg/mL
MIC (Proteus vulgaris; [9]): 12.5 µg/mL
MIC (Serratia marcescens; [10]): 50 µg/mL
